Data reported in ChEMBL document CHEMBL1921676, “Pyrazolone-based anaplastic lymphoma kinase (ALK) inhibitors: control of selectivity by a benzyloxy group” (Bioorg Med Chem Lett, 2011).
One block for each molecule: values may come before it.

Tests used:
[1] = molecular target: ALK tyrosine kinase receptor (Homo sapiens, UniProt Q9UM73); test: Inhibition of ALK
[2] = molecular target: T1, Vascular endothelial growth factor receptor 2 (Homo sapiens, UniProt P35968); test: Inhibition of human cytoplasmic domain of VEGFR-2 by time-resolved fluorescence assay
T1 sequence (P35968 whole entry, the tested form may be a part): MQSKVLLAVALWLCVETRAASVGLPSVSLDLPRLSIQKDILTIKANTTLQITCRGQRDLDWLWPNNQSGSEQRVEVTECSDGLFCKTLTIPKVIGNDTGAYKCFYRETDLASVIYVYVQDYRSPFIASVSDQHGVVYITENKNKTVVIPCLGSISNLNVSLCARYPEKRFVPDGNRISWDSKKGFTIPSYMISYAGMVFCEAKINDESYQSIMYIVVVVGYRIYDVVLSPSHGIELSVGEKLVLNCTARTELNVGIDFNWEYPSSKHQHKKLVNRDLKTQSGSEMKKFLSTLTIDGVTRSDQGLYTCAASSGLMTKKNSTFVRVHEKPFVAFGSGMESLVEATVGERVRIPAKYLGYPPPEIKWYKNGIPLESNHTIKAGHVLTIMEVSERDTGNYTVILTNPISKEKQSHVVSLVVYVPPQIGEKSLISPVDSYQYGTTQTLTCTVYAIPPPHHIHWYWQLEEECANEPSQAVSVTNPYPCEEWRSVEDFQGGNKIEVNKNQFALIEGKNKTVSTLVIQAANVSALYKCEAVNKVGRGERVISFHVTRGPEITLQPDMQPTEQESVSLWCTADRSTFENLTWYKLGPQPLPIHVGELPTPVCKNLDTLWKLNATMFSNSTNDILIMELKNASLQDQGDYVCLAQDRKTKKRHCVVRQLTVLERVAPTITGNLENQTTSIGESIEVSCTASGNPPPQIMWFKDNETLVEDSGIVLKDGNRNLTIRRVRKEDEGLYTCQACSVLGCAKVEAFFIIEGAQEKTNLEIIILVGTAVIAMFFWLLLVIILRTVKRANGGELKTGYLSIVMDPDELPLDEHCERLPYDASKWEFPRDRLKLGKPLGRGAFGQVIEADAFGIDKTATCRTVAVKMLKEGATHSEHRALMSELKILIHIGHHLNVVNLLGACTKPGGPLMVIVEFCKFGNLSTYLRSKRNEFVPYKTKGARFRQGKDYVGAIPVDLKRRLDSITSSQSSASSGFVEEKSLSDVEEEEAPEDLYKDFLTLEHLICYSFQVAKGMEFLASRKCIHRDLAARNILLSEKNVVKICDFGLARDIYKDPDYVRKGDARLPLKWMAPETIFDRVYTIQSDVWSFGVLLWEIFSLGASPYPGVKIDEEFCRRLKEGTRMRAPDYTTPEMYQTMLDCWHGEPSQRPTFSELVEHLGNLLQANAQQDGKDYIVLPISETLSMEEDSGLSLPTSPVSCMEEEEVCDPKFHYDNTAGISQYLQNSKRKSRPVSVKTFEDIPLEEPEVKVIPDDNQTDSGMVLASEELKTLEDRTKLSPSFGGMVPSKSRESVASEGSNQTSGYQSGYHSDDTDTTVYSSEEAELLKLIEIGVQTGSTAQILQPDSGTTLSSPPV

Insulin receptor = Insulin receptor (Homo sapiens, UniProt P06213); test: Inhibition of GST-tagged intracellular domain of IR by homogeneous time-resolved fluorescence assay; assay type: single protein
[3] = Half life in human liver microsomes
[4] = Half life in dog liver microsomes
[5] = Half life in rat liver microsomes
[6] = Half life in mouse liver microsomes
[7] = molecular target: T1, Vascular endothelial growth factor receptor 2; test: Inhibition of human cytoplasmic domain of VEGFR-2 at 1 uM by time-resolved fluorescence assay
[8] = Half life in rat at 1 mg/kg, iv; assay type: ADME, organism-based; set-up: dose 1 mg/kg, route intravenous; conditions: in vivo
[9] = Volume of distribution in rat at 1 mg/kg, iv; assay type: ADME, organism-based; set-up: dose 1 mg/kg, route intravenous; conditions: in vivo
[10] = Clearance in rat at 1 mg/kg, iv; assay type: ADME, organism-based; set-up: dose 1 mg/kg, route intravenous; conditions: in vivo
[11] = AUC in rat at 1 mg/kg, iv; assay type: ADME, organism-based; set-up: dose 1 mg/kg, route intravenous; conditions: plasma
[12] = AUC in rat at 5 mg/kg, po; assay type: ADME, organism-based; set-up: dose 5 mg/kg, route oral; conditions: plasma

Sequence of ALK tyrosine kinase receptor (Q9UM73 whole entry, the tested form may be a part): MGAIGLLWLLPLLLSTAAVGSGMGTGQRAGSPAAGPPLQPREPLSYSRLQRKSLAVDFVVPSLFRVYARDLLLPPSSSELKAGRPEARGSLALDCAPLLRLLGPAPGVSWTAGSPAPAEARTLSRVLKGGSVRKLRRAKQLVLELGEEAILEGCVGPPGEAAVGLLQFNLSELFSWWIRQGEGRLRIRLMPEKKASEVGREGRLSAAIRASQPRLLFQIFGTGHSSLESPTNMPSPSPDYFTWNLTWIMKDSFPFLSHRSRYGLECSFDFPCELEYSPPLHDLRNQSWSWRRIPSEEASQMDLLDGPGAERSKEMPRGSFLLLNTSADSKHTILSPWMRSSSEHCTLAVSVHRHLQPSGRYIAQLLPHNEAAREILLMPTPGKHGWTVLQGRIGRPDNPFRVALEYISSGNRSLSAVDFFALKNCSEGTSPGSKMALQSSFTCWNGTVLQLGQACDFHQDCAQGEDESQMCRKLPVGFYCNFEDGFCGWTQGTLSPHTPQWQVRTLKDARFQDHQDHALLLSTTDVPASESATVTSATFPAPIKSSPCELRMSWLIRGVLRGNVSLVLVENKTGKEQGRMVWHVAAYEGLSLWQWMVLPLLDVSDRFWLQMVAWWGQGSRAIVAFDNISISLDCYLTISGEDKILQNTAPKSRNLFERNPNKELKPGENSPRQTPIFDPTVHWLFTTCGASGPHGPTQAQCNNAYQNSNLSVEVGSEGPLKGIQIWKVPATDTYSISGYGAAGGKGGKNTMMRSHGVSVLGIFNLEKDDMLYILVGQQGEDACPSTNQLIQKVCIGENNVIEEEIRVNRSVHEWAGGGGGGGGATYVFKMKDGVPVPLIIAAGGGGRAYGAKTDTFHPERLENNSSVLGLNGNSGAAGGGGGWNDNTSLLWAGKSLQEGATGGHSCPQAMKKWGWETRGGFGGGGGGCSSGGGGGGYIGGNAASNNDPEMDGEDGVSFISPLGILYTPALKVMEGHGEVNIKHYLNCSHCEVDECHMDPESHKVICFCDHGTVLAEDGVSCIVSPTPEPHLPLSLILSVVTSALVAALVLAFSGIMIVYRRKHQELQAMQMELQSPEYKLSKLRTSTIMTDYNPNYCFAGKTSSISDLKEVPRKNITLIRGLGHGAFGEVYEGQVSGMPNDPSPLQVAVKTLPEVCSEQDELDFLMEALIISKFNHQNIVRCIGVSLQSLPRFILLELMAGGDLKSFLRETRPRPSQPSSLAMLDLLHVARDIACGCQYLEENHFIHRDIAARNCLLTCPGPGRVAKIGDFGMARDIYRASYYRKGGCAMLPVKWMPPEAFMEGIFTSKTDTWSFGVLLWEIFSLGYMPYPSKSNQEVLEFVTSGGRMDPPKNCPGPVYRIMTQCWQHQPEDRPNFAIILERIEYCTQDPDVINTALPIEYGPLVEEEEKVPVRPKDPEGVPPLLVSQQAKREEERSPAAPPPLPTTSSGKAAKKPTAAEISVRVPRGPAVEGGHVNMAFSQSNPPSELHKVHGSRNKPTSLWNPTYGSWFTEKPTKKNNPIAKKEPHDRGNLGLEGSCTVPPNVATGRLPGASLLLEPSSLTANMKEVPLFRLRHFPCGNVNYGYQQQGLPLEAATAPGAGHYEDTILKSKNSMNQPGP

SMILES: CCOc1cccc2c1c(/C=C1\C(=O)NN=C1c1snnc1C)cn2C
IC50 (Insulin receptor): 998 nM | half-life ([3]; microsomes): 6 min | half-life ([4]; microsomes): 5 min | half-life ([5]; microsomes): 5 min | half-life ([6]; microsomes): 5 min

SMILES: Cc1nnsc1C1=NNC(=O)/C1=C\c1cn(C)c2cccc(OCc3c(F)cccc3Cl)c12
IC50 (Insulin receptor): 720 nM

SMILES: Cc1nnsc1C1=NNC(=O)/C1=C\c1cn(C)c2cccc(OCc3ccc(F)cc3F)c12
IC50 (Insulin receptor): > 10000 nM

SMILES: Cn1cc(/C=C2\C(=O)NN=C2c2nccs2)c2c(OCc3cccc(F)c3F)cccc21
IC50 (Insulin receptor): 6500 nM | half-life ([3]; liver microsomes): 14 min | half-life ([4]; liver microsomes): 12 min | half-life ([5]; liver microsomes): 10 min | half-life ([6]; liver microsomes): 8 min

SMILES: Cc1nnsc1C1=NNC(=O)/C1=C\c1cn(C)c2cccc(OCCN(C)C)c12
IC50 [1]: 291 nM

SMILES: Cc1nnsc1C1=NNC(=O)/C1=C\c1cn(C)c2cccc(OCc3ccccn3)c12
IC50 [1]: 158 nM

SMILES: Cc1nc(COc2cccc3c2c(/C=C2\C(=O)NN=C2c2snnc2C)cn3C)cs1
IC50 [1]: 3000 nM

SMILES: Cn1cc(/C=C2\C(=O)NN=C2c2nccs2)c2c(OCc3ccccc3)cccc21
IC50 (Insulin receptor): 9120 nM | half-life ([3]; microsomes): 30 min | half-life ([4]; microsomes): 22 min | half-life ([5]; microsomes): 30 min | half-life ([6]; microsomes): 25 min | inhibition [7]: 50% | half-life [8]: 41.4 min | Vd [9]: 1.2 L/kg | clearance [10]: 19.6 mL/min | AUC [11]: 972 ng·h/mL | AUC [12]: 13 ng·h/mL

SMILES: Cn1cc(/C=C2\C(=O)NN=C2c2cccs2)c2c(OCc3ccccc3)cccc21
IC50 [1]: 104 nM

SMILES: Cn1cc(/C=C2\C(=O)NN=C2c2nccs2)c2c(OCc3c(F)cccc3Cl)cccc21
IC50 (Insulin receptor): 1410 nM

SMILES: Cc1nnsc1C1=NNC(=O)/C1=C\c1cn(C)c2cccc(OCc3ccc(F)cc3)c12
IC50 (Insulin receptor): > 10000 nM

SMILES: Cn1cc(/C=C2\C(=O)NN=C2c2nccs2)c2c(OCc3ccc(F)cc3)cccc21
IC50 [1]: 63 nM

SMILES: CN(C)c1nnc(C2=NNC(=O)/C2=C\c2cn(C)c3cccc(OCc4ccccc4)c23)s1
IC50 [1]: 4600 nM

SMILES: CC(Oc1cccc2c1c(/C=C1\C(=O)NN=C1c1nccs1)cn2C)c1ccccc1 (stereo not drawn)
IC50 (Insulin receptor): > 10000 nM

SMILES: Cc1nnsc1C1=NNC(=O)/C1=C\c1cn(C)c2cccc(OCc3c(F)cccc3F)c12
IC50 (Insulin receptor): > 1000 nM

SMILES: Cc1nnsc1C1=NNC(=O)/C1=C\c1cn(C)c2cccc(OCc3cccc(F)c3)c12
IC50 (Insulin receptor): > 10000 nM

Second part, the molecule after the results:

IC50 [1]: 229 nM
SMILES: Cn1cc(/C=C2\C(=O)NN=C2c2nccs2)c2c(OCc3ccc(F)cc3F)cccc21

IC50 [2]: > 300 nM | IC50 (Insulin receptor): > 10000 nM | half-life ([3]; liver microsomes): 32 min | half-life ([4]; liver microsomes): 29 min | half-life ([5]; liver microsomes): > 40 min | half-life ([6]; liver microsomes): > 40 min
SMILES: Cc1nnsc1C1=NNC(=O)/C1=C\c1cn(C)c2cccc(OCc3ccccc3)c12

IC50 (Insulin receptor): 661 nM
SMILES: Cc1nnsc1C1=NNC(=O)/C1=C\c1cn(C)c2cccc(OCc3c(F)ccc(F)c3Cl)c12

IC50 (Insulin receptor): 428 nM | half-life ([3]; microsomes): 7 min | half-life ([4]; microsomes): 10 min | half-life ([5]; microsomes): 6 min | half-life ([6]; microsomes): 6 min
SMILES: Cn1cc(/C=C2\C(=O)NN=C2c2nccs2)c2c(OCc3c(F)cccc3F)cccc21

IC50 (Insulin receptor): > 10000 nM
SMILES: Cn1cc(/C=C2\C(=O)NN=C2c2nccs2)c2c(OCc3ccccc3F)cccc21

IC50 (Insulin receptor): > 10000 nM
SMILES: Cc1nnsc1C1=NNC(=O)/C1=C\c1cn(C)c2cccc(OCc3ccccc3F)c12

IC50 [1]: 10000 nM
SMILES: Cn1cc(/C=C2\C(=O)NN=C2c2nc(C(F)(F)F)cs2)c2c(OCc3ccccc3)cccc21

IC50 (Insulin receptor): > 1000 nM | half-life ([3]; liver microsomes): 10 min | half-life ([4]; liver microsomes): 8 min | half-life ([5]; liver microsomes): 8 min | half-life ([6]; liver microsomes): 6 min | inhibition [7]: 50%
SMILES: Cn1cc(/C=C2\C(=O)NN=C2c2nccs2)c2c(OCc3cccc(F)c3)cccc21

IC50 [1]: 54 nM
SMILES: Cn1cc(/C=C2\C(=O)NN=C2c2cccnc2)c2c(OCc3ccccc3)cccc21

IC50 (Insulin receptor): 861 nM
SMILES: Cc1nnsc1C1=NNC(=O)/C1=C\c1cn(C)c2cccc(OCc3c(F)ccc(Cl)c3F)c12
